Assay results from ChEMBL document CHEMBL5154779, “Exploration of novel phthalazinone derivatives as potential efflux transporter inhibitors for reversing multidrug resistance and improving the oral absorption of paclitaxel” (Eur J Med Chem, 2022).
Structures can show the parent of a compound that is named as a salt. Calls of active or inactive are those of the source. The calls are words filed in the database; no cut-off is given here.

Assays:
K562/A02 = test: Cytotoxicity against human K562/A02 cells after 48 hrs by MTT assay; type: functional, cell-based; details: K562/A02, 48 h
[1] = Cytotoxicity against dog MDCK-II-BCRP cells after 48 hrs by MTT assay; type: functional, cell-based; details: Canis lupus familiaris
A549 = test: Antiproliferative activity against human A549 cells highly expressing EGFR after 48 hrs by MTT assay; type: functional, cell-based; details: A549, 48 h
K562 = test: Cytotoxicity against human K562 cells after 48 hrs by MTT assay; type: functional, cell-based; details: K562, 48 h
MDCK = test: Cytotoxicity against dog MDCK cells after 48 hrs by MTT assay; type: functional, cell-based; details: Canis lupus familiaris
[2] = Apparent permeability of compound in human Caco-2 cells from basal to apical after 90 mins by LC-MS/MS analysis; type: ADME, cell-based
[3] = Apparent permeability of compound in human Caco-2 cells from basal to apical after 180 mins by LC-MS/MS analysis; type: ADME, cell-based
[4] = Apparent oral clearance in male Sprague-Dawley rat at 20 mg/kg,po pretreated with 3-4-chloropheny1-N-4-2-morpholinoethylpheny1-4-oxo-3,4-dihydrophthalazine-1-carboxamide at 10 mg/kg measured by LC/MS analysis; type: ADME, organism-based; details: in vivo
[5] = Apparent permeability of compound in human Caco-2 cells from apical to basal after 180 mins by LC-MS/MS analysis; type: ADME, cell-based
[6] = Cmax in male Sprague-Dawley rat at 20 mg/kg,po measured by LC/MS analysis; type: ADME, organism-based; parameters: dose 20 mg/kg, route po; details: in vivo
[7] = AUC (0 to t) in male Sprague-Dawley rat at 20 mg/kg,po pretreated with 3-4-chloropheny1-N-4-2-morpholinoethylpheny1-4-oxo-3,4-dihydrophthalazine-1-carboxamide at 10 mg/kg measured by LC/MS analysis; type: ADME, organism-based; parameters: dose 20 mg/kg, route po; details: in vivo
[8] = Apparent permeability of compound in human Caco-2 cells from apical to basal after 90 mins by LC-MS/MS analysis; type: ADME, cell-based
[9] = Tmax in male Sprague-Dawley rat at 20 mg/kg,po pretreated with 3-4-chloropheny1-N-4-2-morpholinoethylpheny1-4-oxo-3,4-dihydrophthalazine-1-carboxamide at 10 mg/kg measured by LC/MS analysis; type: ADME, organism-based; details: in vivo
[10] = Apparent permeability of compound in human Caco-2 cells from basal to apical after 120 mins by LC-MS/MS analysis; type: ADME, cell-based
[11] = Apparent permeability of compound in human Caco-2 cells from basal to apical after 60 mins by LC-MS/MS analysis; type: ADME, cell-based
[12] = Apparent permeability of compound in human Caco-2 cells from basal to apical after 30 mins by LC-MS/MS analysis; type: ADME, cell-based
[13] = Apparent oral volume of distribution in male Sprague-Dawley rat at 20 mg/kg,po pretreated with 3-4-chloropheny1-N-4-2-morpholinoethylpheny1-4-oxo-3,4-dihydrophthalazine-1-carboxamide at 10 mg/kg measured by LC/MS analysis; type: ADME, organism-based; details: in vivo
[14] = Apparent permeability of compound in human Caco-2 cells from apical to basal after 60 mins by LC-MS/MS analysis; type: ADME, cell-based
in vivo = details: male, Sprague-Dawley, rat, po, 20 mg/kg
Caco-2 [15] = test: Cytotoxicity against human Caco-2 cells assessed as reduction in cell viability at 30 uM after 48 hrs by MTT assay; type: toxicity, cell-based; details: caco-2, 48 h
[16] = Cmax in male Sprague-Dawley rat at 20 mg/kg,po pretreated with 3-4-chloropheny1-N-4-2-morpholinoethylpheny1-4-oxo-3,4-dihydrophthalazine-1-carboxamide at 10 mg/kg measured by LC/MS analysis; type: ADME, organism-based; parameters: dose 20 mg/kg, route po; details: in vivo
[17] = Apparent permeability of compound in human Caco-2 cells from apical to basal after 120 mins by LC-MS/MS analysis; type: ADME, cell-based
[18] = Bioavailability in male Sprague-Dawley rat at 5 mg/kg,iv measured by LC/MS analysis; type: ADME, organism-based; details: in vivo
[19] = Oral bioavailability in male Sprague-Dawley rat at 20 mg/kg,po pretreated with 3-4-chloropheny1-N-4-2-morpholinoethylpheny1-4-oxo-3,4-dihydrophthalazine-1-carboxamide at 10 mg/kg measured by LC/MS analysis; type: ADME, organism-based; details: in vivo
[20] = Apparent permeability of compound in human Caco-2 cells from apical to basal after 30 mins by LC-MS/MS analysis; type: ADME, cell-based
[21] = Tmax in male Sprague-Dawley rat at 20 mg/kg,po measured by LC/MS analysis; type: ADME, organism-based; details: in vivo
[22] = biological target: T1, ATP-dependent translocase ABCB1 (Homo sapiens, UniProt P08183); test: Inhibition of P-gp in human K562/A02 cells assessed as rescue of intracellular Rhodamine 123 accumulation at 5 uM incubated for 5 to 120 mins and measured by flow cytometry analysis; type: cell-based; details: k562/a02, 5 µM, time 5-120 min
T1 sequence (P08183 whole entry): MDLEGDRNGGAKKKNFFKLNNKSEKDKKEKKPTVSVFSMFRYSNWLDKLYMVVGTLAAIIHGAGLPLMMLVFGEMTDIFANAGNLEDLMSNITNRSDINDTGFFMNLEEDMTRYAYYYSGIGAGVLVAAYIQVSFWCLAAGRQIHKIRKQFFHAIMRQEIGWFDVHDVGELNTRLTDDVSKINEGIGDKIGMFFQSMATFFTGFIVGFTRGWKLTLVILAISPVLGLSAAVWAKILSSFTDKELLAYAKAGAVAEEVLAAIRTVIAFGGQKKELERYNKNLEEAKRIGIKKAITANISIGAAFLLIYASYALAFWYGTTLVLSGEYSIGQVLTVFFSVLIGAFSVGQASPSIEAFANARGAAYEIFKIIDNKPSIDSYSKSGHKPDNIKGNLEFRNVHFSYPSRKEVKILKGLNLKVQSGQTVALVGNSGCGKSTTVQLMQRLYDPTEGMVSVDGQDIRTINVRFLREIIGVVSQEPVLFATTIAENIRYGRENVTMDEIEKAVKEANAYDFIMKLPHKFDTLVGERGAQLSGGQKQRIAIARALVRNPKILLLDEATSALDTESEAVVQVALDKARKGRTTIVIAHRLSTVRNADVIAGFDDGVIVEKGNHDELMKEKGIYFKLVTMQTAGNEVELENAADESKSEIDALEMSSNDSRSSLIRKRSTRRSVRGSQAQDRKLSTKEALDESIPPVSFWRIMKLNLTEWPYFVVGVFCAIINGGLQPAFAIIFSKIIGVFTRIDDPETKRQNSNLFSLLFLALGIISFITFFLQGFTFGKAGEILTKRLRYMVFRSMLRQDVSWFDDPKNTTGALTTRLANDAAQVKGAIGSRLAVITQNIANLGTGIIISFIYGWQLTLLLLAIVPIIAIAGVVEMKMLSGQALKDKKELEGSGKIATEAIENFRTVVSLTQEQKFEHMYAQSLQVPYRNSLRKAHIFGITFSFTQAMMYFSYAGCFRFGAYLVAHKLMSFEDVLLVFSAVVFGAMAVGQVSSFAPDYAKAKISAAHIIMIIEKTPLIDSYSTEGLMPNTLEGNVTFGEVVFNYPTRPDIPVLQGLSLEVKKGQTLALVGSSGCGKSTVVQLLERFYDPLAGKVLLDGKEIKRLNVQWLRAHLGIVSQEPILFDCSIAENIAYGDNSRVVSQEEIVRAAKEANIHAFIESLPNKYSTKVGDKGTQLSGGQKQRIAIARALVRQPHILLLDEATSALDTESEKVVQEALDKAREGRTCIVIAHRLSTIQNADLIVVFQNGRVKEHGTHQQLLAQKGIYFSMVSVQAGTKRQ

[23] = biological target: T1, ATP-dependent translocase ABCB1; test: Inhibition of P-gp (unknown origin)
[24] = biological target: T2, Broad substrate specificity ATP-binding cassette transporter ABCG2 (Homo sapiens, UniProt Q9UNQ0); test: Inhibition of BCRP (unknown origin)
T2 sequence (Q9UNQ0 whole entry): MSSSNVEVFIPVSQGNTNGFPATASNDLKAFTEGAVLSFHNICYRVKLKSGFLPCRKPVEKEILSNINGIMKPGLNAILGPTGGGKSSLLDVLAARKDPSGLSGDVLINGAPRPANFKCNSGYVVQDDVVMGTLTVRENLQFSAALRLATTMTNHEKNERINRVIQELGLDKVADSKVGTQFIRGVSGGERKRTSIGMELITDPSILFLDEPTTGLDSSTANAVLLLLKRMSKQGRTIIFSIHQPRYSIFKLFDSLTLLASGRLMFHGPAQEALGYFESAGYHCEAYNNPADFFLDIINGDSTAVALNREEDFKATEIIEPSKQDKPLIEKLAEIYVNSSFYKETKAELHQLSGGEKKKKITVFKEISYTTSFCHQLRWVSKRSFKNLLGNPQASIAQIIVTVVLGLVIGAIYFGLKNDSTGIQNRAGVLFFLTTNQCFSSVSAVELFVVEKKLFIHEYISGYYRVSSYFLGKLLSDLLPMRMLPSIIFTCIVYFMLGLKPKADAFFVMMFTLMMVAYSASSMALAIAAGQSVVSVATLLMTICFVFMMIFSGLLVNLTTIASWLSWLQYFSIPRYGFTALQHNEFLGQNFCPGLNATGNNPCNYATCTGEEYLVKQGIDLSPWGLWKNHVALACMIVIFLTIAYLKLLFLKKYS

[25] = biological target: T1, ATP-dependent translocase ABCB1; test: Inhibition of P-gp-mediated multidrug resistance in human K562/A02 cells assessed as adriamycin accumulation at 0.5 to 5 uM pretreated 1.5 hrs followed by treated with adriamycin measured after 4 hrs by flow cytometry analysis; type: cell-based; details: k562/a02, 1.5 h, dose 0.5-5 µM
[26] = Reversal of P-gp-mediated multidrug resistance in human K562/A02 cells assessed as potentiation of adriamycin-induced cytotoxicity at 0.04 uM by measuring adriamycin IC50 after 48 hrs by MTT assay
[27] = Reversal of BCRP-mediated multidrug resistance in dog MDCK-II-BCRP cells in presence of mitoxantrone after 48 hrs by MTT assay; type: cell-based; details: Canis lupus familiaris
MDCK-II-BCRP = test: Inhibition of BCRP-mediated multidrug resistance in dog MDCK-II-BCRP cells assessed as mitoxantrone accumulation at 0.1 to 5 uM pretreated 1.5 hrs followed by treated with mitoxantrone measured after 4 hrs by flow cytometry analysis; type: cell-based; details: Canis lupus familiaris, dose 0.1-5 µM
Caco-2 [28] = test: Cytotoxicity against human Caco-2 cells assessed as reduction in cell viability at 50 uM after 48 hrs by MTT assay; type: toxicity, cell-based; details: caco-2, 48 h

## O=C(NCCCN1CCOCC1)c1nn(-c2ccc(Cl)cc2)c(=O)c2ccccc12
K562/A02
  IC50: > 100 µM
[1]
  IC50: > 100 µM
A549
  IC50: 73.4 µM
K562
  IC50: > 100 µM
MDCK
  IC50: > 100 µM

## CC(=O)O[C@H]1C(=O)[C@@]2(C)[C@H]([C@H](OC(=O)c3ccccc3)[C@]3(O)C[C@H](OC(=O)[C@H](O)[C@@H](NC(=O)c4ccccc4)c4ccccc4)C(C)=C1C3(C)C)[C@]1(OC(C)=O)CO[C@@H]1C[C@@H]2O [PACLITAXEL]
[2]
  Papp B→A at 1.5 h: 5.85 ×10⁻⁶ cm/s
[3]
  Papp B→A at 3 h: 19.4 ×10⁻⁶ cm/s
[4]
  CL/F: 103 mL/min
[5]
  Papp A→B at 3 h: 2.69 ×10⁻⁶ cm/s
[6]
  Cmax: 112 ng/mL
[7]
  AUC(0-t): 3130 ng·h/mL
[8]
  Papp A→B at 1.5 h: 1.98 ×10⁻⁶ cm/s
[9]
  Tmax: 2.51 h
[10]
  Papp B→A at 2 h: 11.1 ×10⁻⁶ cm/s
[11]
  Papp B→A at 1 h: 2.5 ×10⁻⁶ cm/s
[12]
  Papp B→A at 0.5 h: 1.29 ×10⁻⁶ cm/s
[13]
  Vd/F: 16 L
[14]
  Papp A→B at 1 h: 1.02 ×10⁻⁶ cm/s
In vivo
  half-life: 1.68 h
Caco-2 [15]
  Activity: < 20%
[16]
  Cmax: 652 ng/mL
[17]
  Papp A→B at 2 h: 2.42 ×10⁻⁶ cm/s
[18]
  F: 100%
[19]
  bioavailability: 45.1%
[20]
  Papp A→B at 0.5 h: 0.09 ×10⁻⁶ cm/s
[21]
  Tmax: 2 h

## COc1cc2ncnc(Nc3ccc(F)c(Cl)c3)c2cc1OCCCN1CCOCC1 [GEFITINIB]
[22]
  inhibition (INH): Active
[23]
  EC50: > 1 µM

## CS(=O)(=O)CCNCc1ccc(-c2ccc3ncnc(Nc4ccc(OCc5cccc(F)c5)c(Cl)c4)c3c2)o1 [LAPATINIB]
[23]
  EC50: > 2.79 µM
[24]
  EC50: 3.2 µM

## O=C(NCCc1cccc(Cl)c1)c1nn(-c2ccc(Cl)cc2)c(=O)c2ccccc12
K562/A02
  IC50: > 100 µM
[1]
  IC50: 51.4 µM
A549
  IC50: > 100 µM
K562
  IC50: > 100 µM
MDCK
  IC50: > 100 µM

## O=C(NCCN1CCOCC1)c1nn(-c2ccc(Cl)cc2)c(=O)c2ccccc12
K562/A02
  IC50: > 100 µM
[1]
  IC50: > 100 µM
A549
  IC50: > 100 µM
K562
  IC50: > 100 µM
MDCK
  IC50: > 100 µM

## O=C(NCCc1cccc(F)c1)c1nn(-c2ccc(Cl)cc2)c(=O)c2ccccc12
K562/A02
  IC50: > 100 µM
[1]
  IC50: > 100 µM
A549
  IC50: 69.1 µM
K562
  IC50: > 100 µM
MDCK
  IC50: > 100 µM

## O=C(NCCc1ccccc1)c1nn(-c2ccc(Cl)cc2)c(=O)c2ccccc12
K562/A02
  IC50: > 100 µM
[1]
  IC50: 97.3 µM
A549
  IC50: 43.5 µM
K562
  IC50: > 100 µM
MDCK
  IC50: > 100 µM

## COc1ccc2c3c([nH]c2c1)[C@H](CC(C)C)N1C(=O)[C@H](CCC(=O)OC(C)(C)C)NC(=O)[C@@H]1C3
[1]
  IC50: > 100 µM
MDCK
  IC50: 93.3 µM

## COc1ccc(CCN(C)CCCC(C#N)(c2ccc(OC)c(OC)c2)C(C)C)cc1OC (stereo not given)
K562/A02
  IC50: 39.9 µM
[22]
  inhibition (INH): Active

## C#Cc1cccc(Nc2ncnc3cc(OCCOC)c(OCCOC)cc23)c1 [ERLOTINIB]
[23]
  EC50: > 4.93 µM
[24]
  EC50: 0.17 µM

## COc1cccc2c1C(=O)c1c(O)c3c(c(O)c1C2=O)C[C@@](O)(C(=O)CO)C[C@@H]3O[C@H]1C[C@H](N)[C@H](O)[C@H](C)O1 [DOXORUBICIN HYDROCHLORIDE]
K562/A02
  IC50: 78.3 µM
K562
  IC50: 0.92 µM

## O=C(Nc1ccc(CCN2CCc3ccccc3C2)cc1)c1nn(-c2ccc(Cl)cc2)c(=O)c2ccccc12
K562/A02
  IC50: > 100 µM
[1]
  IC50: > 100 µM
A549
  IC50: > 100 µM
K562
  IC50: > 100 µM
MDCK
  IC50: > 100 µM

## O=C(Nc1ccc(N2CCOCC2)cc1)c1nn(-c2ccc(Cl)cc2)c(=O)c2ccccc12
K562/A02
  IC50: > 100 µM
[1]
  IC50: > 100 µM
A549
  IC50: > 100 µM
K562
  IC50: > 100 µM
MDCK
  IC50: > 100 µM

## O=C(Nc1ccc(CCN2CCOCC2)cc1)c1nn(-c2ccc(Cl)cc2)c(=O)c2ccccc12
[25]
  inhibition (INH): Active
K562/A02
  IC50: 43.3 µM
[22]
  inhibition (INH): Active
[1]
  IC50: 81.2 µM
[26]
  IC50: 7232 µM
[27]
  EC50: 0.0982 µM
MDCK-II-BCRP
  inhibition: Active
Caco-2 [28]
  Activity: < 20%
K562
  IC50: 72.8 µM
MDCK
  IC50: 87.7 µM

## COc1cc2c(cc1OC)CN(CCc1ccc(NC(=O)c3cc(OC)c(OC)cc3NC(=O)c3cnc4ccccc4c3)cc1)CC2
[1]
  IC50: > 100 µM
MDCK
  IC50: > 100 µM

## COc1ccc(CCNC(=O)c2nn(-c3ccc(Cl)cc3)c(=O)c3ccccc23)cc1OC
K562/A02
  IC50: > 100 µM
[1]
  IC50: > 100 µM
A549
  IC50: > 100 µM
K562
  IC50: > 100 µM
MDCK
  IC50: > 100 µM
